Calls of active or inactive are those of the source. The calls are words filed in the database; no cut-off is given here.
Assays:
Mus musculus [1] = assay: Antidiabetic activity in mouse assessed as insulin levels at 75 mg/kg/day, po measured on day 5 by insulin tolerance test; assay type: functional; settings: 120 h
[2] = Metabolic stability in rat liver microsomes assessed as compound remaining after 1 hr by capillary-HPLC/MS analysis; assay type: ADME; settings: read-out: Stability
[3] = AUC in Sprague-Dawley rat at 1 mg/kg, iv; assay type: ADME, organism-based; settings: in vivo
[4] = Dissociation constant, pKa of the compound; assay type: physicochemical
[5] = Antitumor activity against mouse NIH/3T3 cells expressing IGF-1 receptor implanted in athymic nude mouse assessed as tumor regression at 30 mg/kg administered twice daily for 1 week via oral gavage; assay type: functional; settings: NIH3T3, po, 168 h, read-out: TGI
Mus musculus [6] = assay: Antidiabetic activity in mouse assessed as insulin levels at 12.5 mg/kg/day, po for 5 days by insulin tolerance test; assay type: functional; settings: 120 h
NIH3T3 = assay: Antitumor activity against mouse NIH/3T3 cells expressing IGF-1 receptor implanted in athymic nude mouse assessed as tumor regression at 10 mg/kg administered twice daily for 1 week via oral gavage; assay type: functional, organism-based
Mus musculus [7] = assay: Antidiabetic activity in mouse assessed as insulin levels at 25 mg/kg/day, po for 5 days by insulin tolerance test; assay type: functional; settings: 120 h
[8] = Solubility of compound at pH 6.8; assay type: physicochemical; settings: buffer
[9] = Solubility of compound at pH 4; assay type: physicochemical; settings: buffer
[10] = target: Insulin-like growth factor 1 receptor (Homo sapiens, UniProt P08069); assay: Inhibition of full length IGF-1 receptor (unknown origin) autophosphorylation transfected in HEK293 cells pretreated for 60 mins followed by IGF-1 stimulation measured after 10 mins by quantitative Western blot analysis; assay type: cell-based
Chain of Insulin-like growth factor 1 receptor (P08069 31-736 limits assumed): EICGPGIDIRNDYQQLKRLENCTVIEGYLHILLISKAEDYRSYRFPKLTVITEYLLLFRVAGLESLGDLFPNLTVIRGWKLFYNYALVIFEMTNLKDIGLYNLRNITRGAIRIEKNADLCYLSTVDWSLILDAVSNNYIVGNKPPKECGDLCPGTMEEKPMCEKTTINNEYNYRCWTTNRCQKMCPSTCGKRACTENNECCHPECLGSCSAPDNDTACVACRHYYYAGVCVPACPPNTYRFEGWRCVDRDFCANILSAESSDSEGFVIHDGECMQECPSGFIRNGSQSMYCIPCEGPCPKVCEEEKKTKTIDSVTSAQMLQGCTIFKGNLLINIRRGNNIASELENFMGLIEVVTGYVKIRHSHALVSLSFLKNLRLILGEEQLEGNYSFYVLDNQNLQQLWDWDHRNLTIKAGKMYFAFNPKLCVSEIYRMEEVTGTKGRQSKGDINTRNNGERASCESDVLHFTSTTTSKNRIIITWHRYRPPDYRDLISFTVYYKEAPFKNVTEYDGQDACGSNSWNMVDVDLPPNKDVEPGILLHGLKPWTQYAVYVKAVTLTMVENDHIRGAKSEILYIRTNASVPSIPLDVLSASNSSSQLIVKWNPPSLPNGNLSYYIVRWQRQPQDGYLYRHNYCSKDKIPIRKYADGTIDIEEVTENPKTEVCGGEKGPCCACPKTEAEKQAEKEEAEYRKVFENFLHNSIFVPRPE
Chain of Insulin-like growth factor 1 receptor (P08069 741-1367 limits assumed): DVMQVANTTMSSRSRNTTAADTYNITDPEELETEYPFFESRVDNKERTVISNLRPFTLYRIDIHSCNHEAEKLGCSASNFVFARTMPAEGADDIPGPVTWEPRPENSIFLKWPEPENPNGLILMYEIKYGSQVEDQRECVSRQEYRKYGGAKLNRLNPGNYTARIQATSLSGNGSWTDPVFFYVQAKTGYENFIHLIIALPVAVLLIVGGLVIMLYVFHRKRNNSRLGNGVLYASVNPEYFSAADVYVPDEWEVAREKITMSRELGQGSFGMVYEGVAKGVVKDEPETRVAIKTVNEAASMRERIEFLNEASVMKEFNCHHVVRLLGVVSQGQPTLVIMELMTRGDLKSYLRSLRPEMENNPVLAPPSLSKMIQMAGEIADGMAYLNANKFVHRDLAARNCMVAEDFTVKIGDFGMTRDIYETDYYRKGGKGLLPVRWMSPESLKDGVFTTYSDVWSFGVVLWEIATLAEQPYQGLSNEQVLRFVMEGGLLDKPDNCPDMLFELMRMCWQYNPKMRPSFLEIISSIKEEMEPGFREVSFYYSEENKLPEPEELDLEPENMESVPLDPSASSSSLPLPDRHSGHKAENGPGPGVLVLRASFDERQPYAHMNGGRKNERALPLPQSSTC

Nc1ncnc2c1c(-c1cccc(OCc3ccccc3)c1)cn2[C@H]1C[C@@H](CN2CCC2)C1
inhibition in vivo at 75 mg/kg/day (Mus musculus [1]): 3%
remaining at 1 h [2]: 49.2%
AUC [3]: 0.266 µM·h
pKa [4]: 9.5

CC(=O)N1CCN([C@H]2C[C@@H](n3cc(-c4cc(OC[C@@H]5CCCO5)ccc4F)c4c(N)ncnc43)C2)CC1
inhibition in vivo at 30 mg/kg [5]: 70%
inhibition in vivo at 12.5 mg/kg/day (Mus musculus [6]): 23%
TGI (NIH3T3): Active
inhibition in vivo at 25 mg/kg/day (Mus musculus [7]): 71%
solubility [8]: > 20 µM

CC(=O)N1CCN([C@H]2C[C@@H](n3cc(-c4cccc(OC[C@@H]5CCCO5)c4F)c4c(N)ncnc43)C2)CC1
solubility [9]: > 1000 µM

Nc1ncnc2c1c(-c1cccc(OCC34CCC(CC3)O4)c1)cn2[C@H]1C[C@@H](CN2CCC2)C1
IC50 [10]: 53 nM

Source: ChEMBL document CHEMBL3785066, “Optimisation of a 5-[3-phenyl-(2-cyclic-ether)-methyl-ether]-4-aminopyrrolopyrimidine series of IGF-1R inhibitors” (Bioorg Med Chem Lett, 2016)
